Data on 25 compounds can be found in US4185016A, “Pyrrolo benzodiazepine compounds” (priority 1977, dated 1980).

Where two headings read alike, the source gives them in different places.

The nature of series [1]: in vivo. The arrangement: species or system DD strain male mice. Particulars: mouse, ip. As to the method:
LD50 values of the compounds of this invention were determined by the use of DD strain male mice having body weight of 18 to 20 g, 5 heads per one group. Each test compound was dissolved into physiological solution of sodium chloride containing 1% dimethyl sulfoxide and administered intraperitoneally to the animals. The dose levels were 20 mg/kg, 16.7 mg/kg, 13.9 mg/kg, 11.6 mg/kg and 9.6 mg/kg. One week after the administration, LD50 was determined.
(§1) The compounds used in the antitumor activity test and the acute toxicity test were the aforementioned novel compounds. The results of tests concerning the compounds of general formula (I) are listed in Table 1, while those concerning the compounds of general formula (II) are listed in Table 2.

For series [2] the following is noted: U.S. Pat. No. 3,361,742 and J. Am. Chem. Soc., 87, 5791-5793 (1965); cited from earlier work.
The conditions of series [3]: U.S. Pat. No. 3,361,742 and J. Am. Chem. Soc., 87, 5791-5793 (1965); cited from earlier work. The source holds these as a separate data set.
In series [4] the test system is Leukaemia P388. In kind it is in vivo, CDF1 male mice. Particulars: ip.
Source text: CDF1 male mice having body weight of 18 to 20 g, 10 heads per one group, were inoculated with 2×10^5 cells/mouse Leukaemia P388. Twenty four hours after the inoculation, an appointed dose of test compound was intraperitoneally administered to the animals of administration group, after which the administration was repeated for successive 6 days. The survival day numbers of the animals were counted.
Survival time of the animals was expressed by average survival day number.
as §1

Setting [5] is: intraperitoneal, one week after administration, read-out: Acute toxicity LD50.

As to `COC1Nc2c(ccc(C)c2O)C(=O)N2CCCC12` (centres unmarked) [4, 11], in series [1], the median lethal dose (LD50) at 168 h worked out at 13.8 mg/kg.

In the case of `Cc1ccc2c(c1O)NC(O)C1CC(/C=C/C(N)=O)=CN1C2=O` (centres unmarked) [5,10,11,11a-tetrahydro-9,11-dihydroxy-8-methyl-5-oxo-1H-pyrrolo[2,1-C][1,4]-benzodiazepin-2-acrylamide], the antitumor activity result in series [2] is listed as “antitumor”. In series [3], the antibacterial activity result is “antibacterial”.

As to `COC1Nc2c(O)cccc2C(=O)N2CCCC12` (centres unmarked) [5, 13], the “Antitumor activity, Life-prolongation rate” value in series [4] (2.5 mg/kg) is reported as 127.0%; in series [4] (5 mg/kg), 148.0%. Also, in series [1] (setting [5]), the LD50 at 168 h is 12.8 mg/kg.

For the compound `COc1ccc2c(c1O)NC(OC)C1CCCN1C2=O` (centres unmarked) [15, 6], the LD50 at 168 h in series [1] (setting [5]) worked out at 12.7 mg/kg.

`COC1Nc2c(ccc(C)c2OC(C)=O)C(=O)N2CCCC12` (centres unmarked) [17, 21]: the “Antitumor activity, Life-prolongation rate” value came out at 125.0% in series [4] (2.5 mg/kg) and 149.0% in series [4] (5 mg/kg). Also, the LD50 at 168 h in series [1] (setting [5]) stood at 13.9 mg/kg.

Turning to `CC(=O)Oc1c(C)ccc2c1N=CC1CCCN1C2=O` (centres unmarked) [20, 19], the LD50 at 168 h in series [1] (setting [5]) worked out at 12.8 mg/kg.

In the case of `COC1Nc2c(OC(C)=O)cccc2C(=O)N2CCCC12` (centres unmarked) [24, 33], the “Antitumor activity, Life-prolongation rate” value in series [4] (2.5 mg/kg) is given as 121.6%; in series [4] (5 mg/kg) it was 143.8%. Also, the LD50 at 168 h in series [1] (setting [5]) was determined as 12.4 mg/kg.

As to `CCOC1Nc2c(ccc(C)c2O)C(=O)N2CCCC12` (centres unmarked) [Example 7, 2,3,5,10,11,11a-hexahydro-11-ethoxy-9-hydroxy-8-methyl-1H-pyrrolo[2,1-C][1,4]benzodiazepin-5-one], the LD50 at 168 h in series [1] (setting [5]) was determined as 13.3 mg/kg.

As to `Cc1ccc2c(c1O)N=CC1CCCN1C2=O` (centres unmarked) [Example 8, 2,3,5,11a-tetrahydro-9-hydroxy-8-methyl-1H-pyrrolo[2,1-C][1,4]benzodiazepin-5-one], the “Antitumor activity, Life-prolongation rate” value is given as 126.7% in series [4] (2.5 mg/kg) and 148.7% in series [4] (5 mg/kg). Also, in series [1] (setting [5]), the LD50 at 168 h came to 13.6 mg/kg.

Turning to `O=C1c2cccc(O)c2N=CC2CCCN12` (centres unmarked) [Example 9, 2,3,5,11a-tetrahydro-9-hydroxy-1H-pyrrolo[2,1-C][1,4]benzodiazepin-5-one], the LD50 at 168 h in series [1] (setting [5]) worked out at 13.1 mg/kg.

Turning to `COc1ccc2c(c1O)N=CC1CCCN1C2=O` (centres unmarked) [Example 10, 2,3,5,11a-tetrahydro-9-hydroxy-8-methoxy-1H-pyrrolo[2,1-C][1,4]benzodiazepin-5-one], the “Antitumor activity, Life-prolongation rate” value was found to be 126.7% in series [4] (2.5 mg/kg) and 145.6% in series [4] (5 mg/kg). Further, in series [1] (setting [5]), the median lethal dose (LD50) at 168 h stood at 13.3 mg/kg.

Take `Cc1ccc2c(c1O)NC(O)C1CCCN1C2=O` (centres unmarked) [Example 12, 2,3,5,10,11,11a-hexahydro-9,11-dihydroxy-8-methyl-1H-pyrrolo[2,1-C][1,4]benzodiazepin-5-one]: the 50% lethal dose (LD50) at 168 h in series [1] (setting [5]) is 12.9 mg/kg.

Consider `O=C1c2cccc(O)c2NC(O)C2CCCN12` (centres unmarked) [Example 14, 2,3,5,10,11,11a-hexahydro-9,11-dihydroxy-1H-pyrrolo[2,1-C][1,4]benzodiazepin-5-one], for which the LD50 at 168 h in series [1] (setting [5]) came out at 12.5 mg/kg.

Take `COc1ccc2c(c1O)NC(O)C1CCCN1C2=O` (centres unmarked) [Example 16, 2,3,5,10,11,11a-hexahydro-9,11-dihydroxy-8-methoxy-1H-pyrrolo[2,1-C][1,4]benzodiazepin-5-one]: the LD50 at 168 h in series [1] (setting [5]) was found to be 12.6 mg/kg.

As for `CCOC1Nc2c(ccc(C)c2OC(C)=O)C(=O)N2CCCC12` (centres unmarked) [Example 18, 2,3,5,10,11,11a-hexahydro-9-acetoxy-11-ethoxy-8-methyl-1H-pyrrolo[2,1-C][1,4]benzodiazepin-5-one], in series [1] (setting [5]), the LD50 at 168 h is 12.8 mg/kg.

`CC(=O)Oc1c(C)ccc2c1NC(O)C1CCCN1C2=O` (centres unmarked) [Example 22, 2,3,5,10,11,11a-hexahydro-9-acetoxy-11-hydroxy-8-methyl-1H-pyrrolo[2,1-C][1,4]benzodiazepin-5-one]: the LD50 at 168 h in series [1] (setting [5]) was found to be 13.5 mg/kg.

As to `CC(=O)Oc1cccc2c1NC(O)C1CCCN1C2=O` (centres unmarked) [Example 23, 2,3,5,10,11,11a-hexahydro-9-acetoxy-11-hydroxy-1H-pyrrolo[2,1-C][1,4]-benzodiazepin-5-one], the LD50 at 168 h in series [1] (setting [5]) is 12.7 mg/kg.

In the case of `CCOC1Nc2c(O)cccc2C(=O)N2CCCC12` (centres unmarked) [Example 25, 2,3,5,10,11,11a-hexahydro-11-ethoxy-9-hydroxy-1H-pyrrolo[2,1-C][1,4]benzodiazepin-5-one], the LD50 at 168 h in series [1] (setting [5]) was 13 mg/kg.

Turning to `CCOC1Nc2c(OC(C)=O)cccc2C(=O)N2CCCC12` (centres unmarked) [Example 26, 2,3,5,10,11,11a-hexahydro-9-acetoxy-11-ethoxy-1H-pyrrolo[2,1-C][1,4]benzodiazepin-5-one], the median lethal dose (LD50) at 168 h in series [1] (setting [5]) worked out at 13.2 mg/kg.

`COc1ccc2c(c1OC(C)=O)NC(O)C1CCCN1C2=O` (centres unmarked) [Example 27, 2,3,5,10,11,11a-hexahydro-9-acetoxy-11-hydroxy-8-methoxy-1H-pyrrolo[2,1-C][1,4]benzodiazepin-5-one]: in series [1] (setting [5]), the LD50 at 168 h amounted to 12.4 mg/kg.

With `COc1ccc2c(c1OC(C)=O)NC(OC)C1CCCN1C2=O` (centres unmarked) [Example 28, 2,3,5,10,11,11a-hexahydro-9-acetoxy-8,11-dimethoxy-1H-pyrrolo[2,1-C][1,4]benzodiazepin-5-one], the 50% lethal dose (LD50) at 168 h in series [1] (setting [5]) came to 12.3 mg/kg.

`CCOC1Nc2c(ccc(OC)c2O)C(=O)N2CCCC12` (centres unmarked) [Example 29, 2,3,5,10,11,11a-hexahydro-11-ethoxy-9-hydroxy-8-methoxy-1H-pyrrolo[2,1-C][1,4]benzodiazepin-5-one]: the “Antitumor activity, Life-prolongation rate” value stood at 123.3% in series [4] (2.5 mg/kg) and 141.4% in series [4] (5 mg/kg). The LD50 at 168 h in series [1] (setting [5]) is 12.2 mg/kg.

With `CCOC1Nc2c(ccc(OC)c2OC(C)=O)C(=O)N2CCCC12` (centres unmarked) [Example 30, 2,3,5,10,11,11a-hexahydro-9-acetoxy-11-ethoxy-8-methoxy-1H-pyrrolo[2,1-C][1,4]benzodiazepin-5-one], the 50% lethal dose (LD50) at 168 h in series [1] (setting [5]) amounted to 12.7 mg/kg.

With `CC(=O)Oc1cccc2c1N=CC1CCCN1C2=O` (centres unmarked) [Example 31, 2,3,5,11a-tetrahydro-9-acetoxy-1H-pyrrolo[2,1-C][1,4]benzodiazepin-5-one], the LD50 at 168 h in series [1] (setting [5]) stood at 13.4 mg/kg.

On to `COc1ccc2c(c1OC(C)=O)N=CC1CCCN1C2=O` (centres unmarked) [Example 32, 2,3,5,11a-tetrahydro-9-acetoxy-8-methoxy-1H-pyrrolo[2,1-C][1,4]benzodiazepin-5-one], for which the LD50 at 168 h in series [1] (setting [5]) was found to be 13.7 mg/kg.

For orientation: LD50 means the dose expected to kill half of the subjects tested.
